This is an account of results in patent US9315491B2 (DEVELOPMENT CENTER FOR BIOTECHNOLOGY, priority 2009, dated 2016).

The target of the assay is recombinant mTOR (Homo sapiens (Human), UniProt P42345). Put plainly: mTOR kinase assay (33P incorporation into 4EBP1). It counts as biochemical. The settings on record: compound at 10 μM, 10 μM ATP. As to the method:
The activity of the compound against mTOR was examined by measuring the incorporation of ^33P from [γ-^33P]-ATP into 4EBP1. His-tagged, recombinant human 4EBP1 was expressed in E. coli, purified by nickel-nitrilotriacetic acid (Ni-NTA) resins, and stored at −80° C. Phosphorylation of 4EBP1 by mTOR was assayed in the presence or absence of the compound and performed in a final volume of 25 μl reaction buffer containing 300 ng 4EBP1, 50 ng recombinant mTOR (Invitrogen), 50 mM HEPES (pH 7.5), 1 mM EGTA, 0.01% Polysorbate 20, 10 mM MnCl2, 2.5 mM DTT, 10 μM ATP, and 0.5 μCi [γ-33P]-ATP (PerkinElmir) for 30 min at 30° C. The reactions were terminated by adding 3% phosphoric acid. The ^33P labeled 4EBP1 was transferred onto UniFilter-96 GF/B plate (PerkinElmer) and quantified by Top Count Microplate Scintillation Counter (PerkinElmer). For primary screening of kinase activity inhibition, each test compound was evaluated at […] in duplicate. […] The IC50 values of the compounds were determined after carrying out assays at eight serially diluted concentrations of each compound in duplicate. The results were analyzed using linear regression software (GraphPad Prism 5; GraphPad Software Inc.).
IC50 value is defined as the concentration of the test compound which achieves a half-maximal inhibition of the kinase activity.

Usually inhibition stands for the drop in the measured response relative to a control, in per cent.

Molecules are shown by their SMILES.

recombinant mTOR, sequence (P42345 1360-2549): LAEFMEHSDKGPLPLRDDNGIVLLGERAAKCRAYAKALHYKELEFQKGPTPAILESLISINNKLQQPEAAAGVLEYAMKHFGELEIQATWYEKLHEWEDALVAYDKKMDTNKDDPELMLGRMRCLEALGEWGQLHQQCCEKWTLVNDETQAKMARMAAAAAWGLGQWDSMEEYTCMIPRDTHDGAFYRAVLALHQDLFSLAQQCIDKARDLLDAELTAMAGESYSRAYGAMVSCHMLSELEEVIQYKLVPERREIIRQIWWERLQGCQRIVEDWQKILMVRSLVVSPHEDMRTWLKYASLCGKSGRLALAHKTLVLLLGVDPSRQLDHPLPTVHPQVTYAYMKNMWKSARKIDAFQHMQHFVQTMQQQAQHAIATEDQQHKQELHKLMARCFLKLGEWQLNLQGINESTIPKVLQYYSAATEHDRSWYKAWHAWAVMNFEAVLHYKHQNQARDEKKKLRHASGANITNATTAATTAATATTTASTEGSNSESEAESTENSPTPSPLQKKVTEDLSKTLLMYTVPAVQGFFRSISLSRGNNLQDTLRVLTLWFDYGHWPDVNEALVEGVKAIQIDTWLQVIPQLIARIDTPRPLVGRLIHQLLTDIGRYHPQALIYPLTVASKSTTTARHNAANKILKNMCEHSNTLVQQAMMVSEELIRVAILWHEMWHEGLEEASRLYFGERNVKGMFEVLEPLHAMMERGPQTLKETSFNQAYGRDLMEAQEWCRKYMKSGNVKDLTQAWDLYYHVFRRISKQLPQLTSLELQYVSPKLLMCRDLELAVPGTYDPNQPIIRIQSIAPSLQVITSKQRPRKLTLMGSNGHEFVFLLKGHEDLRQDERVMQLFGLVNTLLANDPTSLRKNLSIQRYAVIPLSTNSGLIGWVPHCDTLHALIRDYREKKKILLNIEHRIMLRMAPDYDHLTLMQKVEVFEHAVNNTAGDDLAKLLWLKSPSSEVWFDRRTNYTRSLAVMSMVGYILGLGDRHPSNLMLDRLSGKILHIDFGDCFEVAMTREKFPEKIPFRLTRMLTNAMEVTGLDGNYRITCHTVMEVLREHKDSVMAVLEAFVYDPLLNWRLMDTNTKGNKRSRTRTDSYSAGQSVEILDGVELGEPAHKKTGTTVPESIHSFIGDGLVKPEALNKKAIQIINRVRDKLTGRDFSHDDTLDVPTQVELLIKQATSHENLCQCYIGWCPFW

For the compound `CCOc1c(CN2CCCCC2)nc(-c2ccc(NC(=O)Nc3ccccc3)cc2)nc1N1CCOCC1` [MTR-0193, 1-[4-(5-Ethoxy-4-morpholin-4-yl-6-piperidin-1-ylmethyl-pyrimidin-2-yl)-phenyl]-3-phenyl-urea], the inhibition at 10 µM was 81%.

Consider `CSc1c(Cl)nc(-c2ccc(NC(=O)NCCCl)cc2)nc1N1CCOCC1` [MTR-0108, 1-(2-Chloro-ethyl)-3-[4-(4-chloro-5-methylsulfanyl-6-morpholin-4-yl-pyrimidin-2-yl)-phenyl]-urea], for which the inhibition at 10 µM turned out to be 89%.

As for `CNC(=O)Nc1ccc(-c2ncc(SC)c(N3CCOCC3)n2)cc1` [MTR-0210, 1-Methyl-3-[4-(5-methylsulfanyl-4-morpholin-4-yl-pyrimidin-2-yl)-phenyl]-urea], the inhibition at 10 µM was 96%.

Regarding `CCOc1c(-c2ccncc2)nc(-c2ccc(NC(=O)Nc3ccc(N4CCOCC4=O)cc3)cc2)nc1N1CCOCC1` [MTR-0495, 1-[4-(5-Ethoxy-4-morpholin-4-yl-6-pyridin-4-yl-pyrimidin-2-yl)-phenyl]-3-[4-(3-oxo-morpholin-4-yl)-phenyl]-urea], the inhibition at 10 µM was 100%.

On to `CCNC(=O)Nc1ccc(-c2ncc(SC)c(N3CCOCC3)n2)cc1` [MTR-0159, 1-Ethyl-3-[4-(5-methylsulfanyl-4-morpholin-4-yl-pyrimidin-2-yl)-phenyl]-urea], for which the inhibition at 10 µM is 97%.

With `CCOC(=O)c1nc(-c2ccc(NC(=O)Nc3ccc(OCCN(C)C)cc3)cc2)nc(N2CCOCC2)c1OCC` [MTR-0363, 2-(4-{3-[4-(2-Dimethylamino-ethoxy)-phenyl]-ureido}-phenyl)-5-ethoxy-6-morpholin-4-yl-pyrimidine-4-carboxylic acid ethyl ester], the inhibition at 10 µM came out at 93%.

Take `COc1cnc(-c2ccc(NC(=O)Nc3ccncc3)cc2)nc1-c1ccncc1` [MTR-0480, 1-[4-(5-Methoxy-4-pyridin-4-yl-pyrimidin-2-yl)-phenyl]-3-pyridin-4-yl-urea]: the inhibition at 10 µM stood at 90%.

For `CCOC(=O)c1nc(-c2ccc(NC(=O)Nc3ccc(Cl)nc3)cc2)nc(N2CCOCC2)c1OCC` [MTR-0079, 2-{4-[3-(6-Chloro-pyridin-3-yl)-ureido]-phenyl}-5-ethoxy-6-morpholin-4-yl-pyrimidine-4-carboxylic acid ethyl ester], the inhibition at 10 µM turned out to be 83%.

As to `CSc1c(Cl)nc(-c2ccc(NC(=O)Nc3ccc(N(C)C)cc3)cc2)nc1N1CCOCC1` [MTR-0123, 1-[4-(4-Chloro-5-methylsulfanyl-6-morpholin-4-yl-pyrimidin-2-yl)-phenyl]-3-(4-dimethylamino-phenyl)-urea], the inhibition at 10 µM stood at 91%.

As to `COc1cnc(-c2cccc(O)c2)nc1N1CCOCC1` [MTR-0116, 3-(5-Methoxy-4-morpholin-4-yl-pyrimidin-2-yl)-phenol], the inhibition at 10 µM came out at 81%.

Consider `CCOC(=O)c1nc(-c2ccc(NC(=O)Nc3cccc4[nH]ncc34)cc2)nc(N2CCOCC2)c1OCC` [MTR-0297, 5-Ethoxy-2-{4-[3-(1H-indazol-4-yl)-ureido]-phenyl}-6-morpholin-4-yl-pyrimidine-4-carboxylic acid ethyl ester], for which the inhibition at 10 µM was 83%.

Turning to `CSc1c(Cl)nc(-c2ccc(NC(=O)Nc3ccc(NC(C)=O)nc3)cc2)nc1N1CCOCC1` [MTR-0415, N-(5-{3-[4-(4-Chloro-5-methylsulfanyl-6-morpholin-4-yl-pyrimidin-2-yl)-phenyl]-ureido}-pyridin-2-yl)-acetamide], the inhibition at 10 µM was found to be 81%.

As to `CCOc1c(-c2ccncc2)nc(-c2ccc(NC(=O)Nc3ccncc3)cc2)nc1N1CCOCC1` [MTR-0492, 1-[4-(5-Ethoxy-4-morpholin-4-yl-6-pyridin-4-yl-pyrimidin-2-yl)-phenyl]-3-pyridin-4-yl-urea], the inhibition at 10 µM was 100%.

Regarding `CSc1c(-c2cccnc2)nc(-c2ccc(NC(=S)Nc3ccccc3)cc2)nc1N1CCOCC1` [MTR-0440, 1-[4-(5-Methylsulfanyl-4-morpholin-4-yl-6-pyridin-3-yl-pyrimidin-2-yl)-phenyl]-3-phenyl-thiourea], the inhibition at 10 µM was 89%.

Regarding `CSc1cnc(-c2ccc(NC(=O)Nc3ccc(F)c(F)c3)cc2)nc1N1CCOCC1` [MTR-0177, 1-(3,4-Difluoro-phenyl)-3-[4-(5-methylsulfanyl-4-morpholin-4-yl-pyrimidin-2-yl)-phenyl]-urea], the inhibition at 10 µM turned out to be 84%.

Regarding `CCOC(=O)c1nc(-c2cccc(O)c2)nc(N2CCOCC2)c1OC` [MTR-0073, 2-(3-Hydroxy-phenyl)-5-methoxy-6-morpholin-4-yl-pyrimidine-4-carboxylic acid ethyl ester], the inhibition at 10 µM amounted to 86%.

In the case of `COc1cnc(-c2ccc(NC(=O)Nc3ccc(Br)nc3)cc2)nc1N1CCOCC1` [MTR-0352, 1-(6-Bromo-pyridin-3-yl)-3-[4-(5-methoxy-4-morpholin-4-yl-pyrimidin-2-yl)-phenyl]-urea], the inhibition at 10 µM was determined as 94%.

As to `CSc1c(Cl)nc(-c2ccc(NC(=S)Nc3ccc(C(=O)O)cc3)cc2)nc1N1CCOCC1` [MTR-0293, 4-{3-[4-(4-Chloro-5-methylsulfanyl-6-morpholin-4-yl-pyrimidin-2-yl)-phenyl]-thioureido}-benzoic acid], the inhibition at 10 µM worked out at 83%.

In the case of `CCOc1c(C(=O)O)nc(-c2ccc(NC(=O)Nc3ccccc3)cc2)nc1N1CCOCC1` [MTR-0118, 5-Ethoxy-6-morpholin-4-yl-2-[4-(3-phenyl-ureido)-phenyl]-pyrimidine-4-carboxylic acid], the inhibition at 10 µM was 94%.

Take `CCOC(=O)c1nc(-c2ccc(Nc3nc4ccccc4[nH]3)cc2)nc(N2CCOCC2)c1OCC` [MTR-0243, 2-[4-(1H-Benzoimidazol-2-ylamino)-phenyl]-5-ethoxy-6-morpholin-4-yl-pyrimidine-4-carboxylic acid ethyl ester]: the inhibition at 10 µM worked out at 92%.

For the compound `CSc1cnc(-c2ccc(NC(N)=O)cc2)nc1N1CCOCC1` [MTR-0286, [4-(5-Methylsulfanyl-4-morpholin-4-yl-pyrimidin-2-yl)-phenyl]-urea], the inhibition at 10 µM was found to be 93%.

On to `CSc1cnc(-c2ccc(NC(=O)NC(C)C)cc2)nc1N1CCOCC1` [MTR-0341, 1-Isopropyl-3-[4-(5-methylsulfanyl-4-morpholin-4-yl-pyrimidin-2-yl)-phenyl]-urea], for which the inhibition at 10 µM was 83%.

With `CCOC(=O)c1nc(-c2ccc(NC(=O)NC(C)C)cc2)nc(N2CCOCC2)c1OCC` [MTR-0366, 5-Ethoxy-2-[4-(3-isopropyl-ureido)-phenyl]-6-morpholin-4-yl-pyrimidine-4-carboxylic acid ethyl ester], the inhibition at 10 µM came to 85%.

With `CCOc1c(-c2cccnc2)nc(-c2ccc(NC(=O)Nc3ccncc3)cc2)nc1N1CCOCC1` [MTR-0490, 1-[4-(5-Ethoxy-4-morpholin-4-yl-6-pyridin-3-yl-pyrimidin-2-yl)-phenyl]-3-pyridin-4-yl-urea], the inhibition at 10 µM is 102%.

With `CSc1c(Cl)nc(-c2ccc(NC(=O)NCCN3CCOCC3)cc2)nc1N1CCOCC1` [MTR-0198, 1-[4-(4-Chloro-5-methylsulfanyl-6-morpholin-4-yl-pyrimidin-2-yl)-phenyl]-3-(2-morpholin-4-yl-ethyl)-urea], the inhibition at 10 µM was 87%.

`COc1ccc(NC(=O)Nc2ccc(-c3ncc(OC)c(N4CCOCC4)n3)cc2)cc1OC` [MTR-0239, 1-(3,4-Dimethoxy-phenyl)-3-[4-(5-methoxy-4-morpholin-4-yl-pyrimidin-2-yl)-phenyl]-urea]: the inhibition at 10 µM worked out at 89%.

Regarding `COc1cnc(-c2ccc(Nc3nc4ccccc4[nH]3)cc2)nc1N1CCOCC1` [MTR-0310, (1H-Benzoimidazol-2-yl)-[4-(5-methoxy-4-morpholin-4-yl-pyrimidin-2-yl)-phenyl]-amine], the inhibition at 10 µM worked out at 86%.

In the case of `CSc1c(Cl)nc(-c2ccc(NC(=O)Nc3ccc(Br)nc3)cc2)nc1N1CCOCC1` [MTR-0291, 1-(6-Bromo-pyridin-3-yl)-3-[4-(4-chloro-5-methylsulfanyl-6-morpholin-4-yl-pyrimidin-2-yl)-phenyl]-urea], the inhibition at 10 µM amounted to 89%.

Turning to `CSc1c(Cl)nc(-c2ccc(NC(=O)Nc3ccc(C(N)=O)cc3)cc2F)nc1N1CCOCC1` [MTR-0411, 4-{3-[4-(4-Chloro-5-methylsulfanyl-6-morpholin-4-yl-pyrimidin-2-yl)-3-fluoro-phenyl]-ureido}-benzamide], the inhibition at 10 µM was 93%.

Consider `CSc1cnc(-c2ccc(NC(=O)Nc3ccc(N4CCN(S(C)(=O)=O)CC4)cc3)cc2)nc1N1CCOCC1` [MTR-0430, 1-[4-(4-Methanesulfonyl-piperazin-1-yl)-phenyl]-3-[4-(5-methylsulfanyl-4-morpholin-4-yl-pyrimidin-2-yl)-phenyl]-urea], for which the inhibition at 10 µM is 86%.

Turning to `CCOC(=O)c1nc(-c2ccc(NC(=O)Nc3ccc4c(c3)OCO4)cc2)nc(N2CCOCC2)c1OCC` [MTR-0361, 2-[4-(3-Benzo[1,3]dioxol-5-yl-ureido)-phenyl]-5-ethoxy-6-morpholin-4-yl-pyrimidine-4-carboxylic acid ethyl ester], the inhibition at 10 µM is 95%.

In the case of `CCOC(=O)c1nc(-c2ccc(NC(=O)Nc3ccc(F)cc3)cc2)nc(N2CCOCC2)c1OCC` [MTR-0149, 5-Ethoxy-2-{4-[3-(4-fluoro-phenyl)-ureido]-phenyl}-6-morpholin-4-yl-pyrimidine-4-carboxylic acid ethyl ester], the inhibition at 10 µM amounted to 93%.
